Reference: patent publication US8445636B2, “Antimicrobial and anticancer lipopeptides” (Yeda Research & Development Co. Ltd., priority 2003, dated 2013)
Values after ≈ are worked out from the molar mass of the structure shown. Positions of bridges follow the written chain, without caps; N, C: chain ends. Non-standard residues stand in square brackets, D forms with d. Residues, ends and D or L forms follow the SMILES beside them. *: point of attachment. Palmitoyl = CCCCCCCCCCCCCCCC(=O)*; Myristoyl = CCCCCCCCCCCCCC(=O)*

Experiments:
in vitro [1] = type: in vitro ADME, porcine; conditions: pig, isolated enzyme pepsin, pH 7.3
Procedure: (§1) Equal amounts of the lipopeptides were dissolved in PBS (35 mM phosphate buffer/0.15 M NaCl, pH 7.3) to yield a final concentration of 140 μM to which 25 μM of either pepsin (from porcine stomach mucosa, Sigma), trypsin (from bovine pancreas, Sigma), or elastase (from human leukocytes, Sigma) were added. The samples were incubated under agitation for 30 min at 37° C. After addition of the appropriate protease inhibitor to stop the reaction, aliquots of the proteolytic digest were injected to C18 HPLC column and the amounts of the intact lipopeptide were evaluated using their absorbance at 215 nm.

[2] = Resistance to proteolytic digestion, intact lipopeptide by HPLC; type: in vitro ADME; conditions: human, elastase from human leukocytes; 140 μM lipopeptide, 25 μM protease, 30 min at 37° C., PBS pH 7.3
Procedure: as §1

in vitro [3] = type: in vitro ADME, bovine; conditions: isolated enzyme trypsin, pH 7.3
Procedure: as §1

[4] = Cytotoxicity, XTT viability, non-cancer cells; type: cell-based; conditions: mouse, non-cancer cell line, 24 h incubation, read-out: LC50, 3T3
Procedure: (§2) Prostate cancer cell lines (CL1 and 22RV1; ATCC, USA) were grown in RPMI-1640 supplemented with 10% FCS (Biological Industries, Beit Haemek, Israel). N1H-3T3 mouse fibroblast cell line (ATCC, USA) was grown in DMEM supplemented with 10% bovine serum. To test cytotoxicity against the cancer cells, aliquots of medium containing 1×10^4 cells were distributed into a 96-well plate (Falcon). After one day, the media were replaced with 90 μl of fresh media and 10 μl of a solution containing different concentrations of the peptides. The plate was then incubated for 24 h before adding to each well 50 μl of XTT reaction solution (Biological Industries, Beit Haemek, Israel); viability was determined as previously described (Papo et al., (2003) J. Biol. Chem. 278:21018-23). The LC50 (concentration at which 50% of the cells die) for each peptide was obtained from the dose-dependent cell viability curves.

[5] = tested on: Prostate cancer cell line 22RV1; assay: Cytotoxicity, XTT viability; type: cell-based, human; conditions: 24 h incubation, read-out: LC50, Prostate cancer 22RV1
Procedure: as §2

[6] = tested on: Prostate cancer cell line CL1; assay: Cytotoxicity, XTT viability; type: cell-based, human; conditions: 24 h incubation, read-out: LC50, Prostate cancer CL1
Procedure: as §2

[7] = tested on: Enterococcus faecalis ATCC 29212; type: cell-based; conditions: ATCC 29212, pH 7.4
Outline: (§3)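 Broth microdilution in LB medium at pH 7.4 (pH 5.5 where indicated), 1×10^6 CFU/ml suspension mixed 1:1 with 2-fold serial dilutions of lipopeptide in water. After 18-20 h at 37° C, growth read by absorbance at 600 nm; MIC is the concentration giving 100% growth inhibition.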

[8] = tested on: Enterobacter cloacae ATCC 49141; type: cell-based; conditions: ATCC 49141, pH 7.4
Outline: as §3

[9] = tested on: Escherichia coli ATCC 25922; type: cell-based; conditions: ATCC 25922, pH 7.4
Outline: as §3

[10] = tested on: Staphylococcus aureus ATCC 6538P; type: cell-based; conditions: ATCC 6538, pH 7.4
Outline: as §3

[11] = tested on: Acinetobacter baumannii ATCC 19606; type: cell-based; conditions: ATCC 19606, pH 7.4
Outline: as §3

[12] = tested on: methicilin-resistant Staphylococcus aureus (MRSA) ATCC 700698; type: cell-based; conditions: ATCC 700698, pH 7.4
Outline: as §3

[13] = tested on: Pseudomonas aeruginosa ATCC 27853; type: cell-based; conditions: ATCC 27853, pH 7.4
Outline: as §3

[14] = tested on: vancomycin-resistant Enterococcus faecium (VRE) ATCC 700221; type: cell-based; conditions: for Minimal Inhibitory Concentration, E. faecium (VRE): ATCC 700221, pH 7.4
Outline: as §3

[15] = tested on: Aspergillus niger ATCC 9642; type: cell-based; conditions: ATCC 9642, pH 7.4
Procedure: The antifungal activity of the lipopeptides was examined in sterile 96-well plates (Nunc F96 microtiter plates) in a final volume of 200 μL as follows: 100 µl of a suspension containing fungi at a concentration of 1×10^4 Colony-Forming Units (CFU)/ml in culture medium (RPMI 1640, 0.165 M MOPS with L-glutamine, without NaHCO3) at pH 7.4 or pH 5.5 (adjustment of the pH was done by diluted solutions of HCl and NaOH) were added to 100 μl of water containing the peptide in serial 2-fold dilutions in water. The fungi were incubated in the presence of the lipopeptides for 24-48 h at 35° C. in a Binder KB115 incubator under agitation. Growth inhibition was determined by measuring the absorbance at 620 nm with a Microplate autoreader E1309 (Bio-Tek Instruments). Antifungal activity is expressed as the minimal inhibitory concentration (MIC), the concentration at which 100% inhibition of fungi growth was observed after the incubation time mentioned above. The fungi used were: Aspergillus niger ATCC 9642, Candida albicans ATCC 10231 and Cryptococcus neoformans ATCC 66031. If not indicated otherwise, the fungi growth was detected at pH 7.4.

[16] = tested on: Aspergillus fumigatus ATCC 26430; assay: microbe, parasite or virus in culture; type: cell-based; conditions: ATCC 26430, pH 7.4
[17] = tested on: Aspergillus flavus ATCC 9643; type: cell-based; conditions: ATCC 9643, pH 7.4
[18] = tested on: Candida albicans ATCC 10231; assay: microbe, parasite or virus in culture; type: cell-based; conditions: ATCC 10231, pH 7.4; for MIC: read-out: Minimal Inhibitory Concentration, Candida Albicans (ATCC 10231)
Outline: (§4)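 MIC = lowest concentration giving 100% growth inhibition by A620 after 24-48 h at 35 °C with agitation. Inoculum: 1×10^4 CFU/ml (pre-mix) in RPMI 1640/0.165 M MOPS; pH 7.4 by default, 5.5 where noted. Peptide as twofold dilution series in water.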

[19] = tested on: Cryptococcus neoformans ATCC 66031; assay: microbe, parasite or virus in culture; type: cell-based; conditions: ATCC 66031, pH 7.4
Outline: as §4

[20] = tested on: Cryptococcus neoformans ATCC MYA-422; assay: microbe, parasite or virus in culture; type: cell-based; conditions: ATCC MYA-422, pH 7.4
B. subtilis ATCC 6051 = type: cell-based; conditions: ATCC 6051, pH 7.4
M. laleus = type: cell-based; conditions: Table 3, short lipopeptides; pH 7.4
Outline: as §3

E. coli D21 = type: cell-based; conditions: D21, pH 7.4

metabolised at 0.5 h, 140 μM (in vitro [1]) [%]	metabolised at 0.5 h, 140 μM [2] [%]	metabolised at 0.5 h, 140 μM (in vitro [3]) [%]	SMILES	Minimal Inhibitory Concentration, E. faecalis [7] [µM]	Minimal Inhibitory Concentration, E. cloacae [8] [µM]	Minimal Inhibitory Concentration, E. coli [9] [µM]	Minimal Inhibitory Concentration, S. aureus [10] [µM]	Minimal Inhibitory Concentration, S. aureus ATCC 6538P [10] [µM]	Minimal Inhibitory Concentration, A. Baumaannii [11] [µM]	Minimal Inhibitory Concentration, A. baumannii ATCC 19606 [11] [µM]	Minimal Inhibitory Concentration, S. aureus (MRSA) [12] [µM]	Minimal Inhibitory Concentration, P. Aeruginosa [13] [µM]	Minimal Inhibitory Concentration, P. aeruginosa ATCC 27853 [13] [µM]	Minimal Inhibitory Concentration, E. faecium (VRE) [14] [µM]	Minimal Inhibitory Concentration, A. fumigatus ATCC 26430 [16] [µM]	Minimal Inhibitory Concentration, C. albicans ATCC 10231 [18] [µM]	MIC [18] [µM]	Minimal Inhibitory Concentration, C. neoformans ATCC 66031 [19] [µM]	also measured
100	100	100	CCCCCCCCCCCCCC(=O)N[C@H]1CSSC[C@@H](C(N)=O)NC(=O)[C@H](CCCCN)NC(=O)CNC(=O)CNC(=O)[C@H](CCCCN)NC(=O)CNC(=O)CNC(=O)CNC(=O)[C@H](CCCCN)NC(=O)CNC(=O)CNC(=O)CNC(=O)[C@H](CCCCN)NC1=O [lipopeptide 19] (Myristoyl-CKGGGKGGGKGGKC-NH2; disulfide 1-14)	–	–	–	–	–	–	–	–	–	–	–	–	–	–	–	–
0	0	0	CCCCCCCCCCCCCC(=O)N[C@H]1CSSC[C@@H](C(N)=O)NC(=O)[C@@H](CCCCN)NC(=O)CNC(=O)CNC(=O)[C@@H](CCCCN)NC(=O)CNC(=O)CNC(=O)CNC(=O)[C@@H](CCCCN)NC(=O)CNC(=O)CNC(=O)CNC(=O)[C@@H](CCCCN)NC1=O [lipopeptide 16] (Myristoyl-C[dK]GGG[dK]GGG[dK]GG[dK]C-NH2; disulfide 1-14)	–	–	–	–	–	–	–	–	–	–	–	–	–	–	–	–

The next lines start with the molecule.

SMILES	metabolised at 0.5 h, 140 μM (in vitro [1]) [%]	metabolised at 0.5 h, 140 μM [2] [%]	metabolised at 0.5 h, 140 μM (in vitro [3]) [%]	Minimal Inhibitory Concentration, E. faecalis [7] [µM]	Minimal Inhibitory Concentration, E. cloacae [8] [µM]	Minimal Inhibitory Concentration, E. coli [9] [µM]	Minimal Inhibitory Concentration, S. aureus [10] [µM]	Minimal Inhibitory Concentration, S. aureus ATCC 6538P [10] [µM]	Minimal Inhibitory Concentration, A. Baumaannii [11] [µM]	Minimal Inhibitory Concentration, A. baumannii ATCC 19606 [11] [µM]	Minimal Inhibitory Concentration, S. aureus (MRSA) [12] [µM]	Minimal Inhibitory Concentration, P. Aeruginosa [13] [µM]	Minimal Inhibitory Concentration, P. aeruginosa ATCC 27853 [13] [µM]	Minimal Inhibitory Concentration, E. faecium (VRE) [14] [µM]	Minimal Inhibitory Concentration, A. fumigatus ATCC 26430 [16] [µM]	Minimal Inhibitory Concentration, C. albicans ATCC 10231 [18] [µM]	MIC [18] [µM]	Minimal Inhibitory Concentration, C. neoformans ATCC 66031 [19] [µM]	also measured
CC(C)C[C@@H](N)C(=O)N[C@@H](CCCNC(=N)N)C(=O)N[C@@H](CCCNC(=N)N)C(=O)N[C@H](CC(C)C)C(=O)N[C@H](CC(C)C)C(=O)N[C@@H](CCCNC(=N)N)C(=O)N[C@@H](CCCNC(=N)N)C(=O)N[C@H](CC(C)C)C(=O)N[C@H](CC(C)C)C(=O)N[C@@H](CCCNC(=N)N)C(=O)N[C@@H](CCCNC(=N)N)C(=O)N[C@H](CC(C)C)C(N)=O [DL6R6, LRRLLRRLLRRL, reference compound] (H-[dL]RR[dL][dL]RR[dL][dL]RR[dL]-NH2; N-terminus assumed)	–	–	–	–	–	–	–	–	–	–	–	–	–	–	–	–	–	–	CC50 at 24 h [4]: > 100 µM; CC50 [5]: 50 µM; CC50 [6]: > 100 µM
CCCCCCCCCCCCCCCC(=O)N[C@H](CCCCN)C(=O)NCC(=O)NCC(=O)NCC(=O)N[C@H](CCCCN)C(=O)NCC(=O)NCC(=O)NCC(=O)N[C@H](CCCCN)C(=O)NCC(=O)NCC(=O)N[C@H](CCCCN)C(N)=O [lipopeptide 2, (CH3—(CH2)14—CO—)-D-Lys-Gly-Gly-Gly-D-Lys-Gly-Gly-Gly-D-Lys-Gly-Gly-D-Lys-NH2] (Palmitoyl-[dK]GGG[dK]GGG[dK]GG[dK]-NH2)	–	–	–	12.5	25	25	12.5	12.5	25	25	12.5	6.25	6.25	3.125	12.5	3.125	3.125 (≈ 3.83 µg/mL)	6.25	Minimal Inhibitory Concentration, E. coli (ATCC 25922) [9]: 25 µM; activity against VRE ([14]; in words, summary of Table 4): highly active; Minimal Inhibitory Concentration, Aspergillus niger (ATCC 9642) [15]: 6.25 µM; Minimal Inhibitory Concentration, Aspergillus fumigatus (ATCC 26430) [16]: 12.5 µM; Minimal Inhibitory Concentration, Aspergillus flavus (ATCC 9643) [17]: 100 µM; Minimal Inhibitory Concentration, Cryptococcus neoformans (ATCC MYA-422) [20]: 6.25 µM; Minimal Inhibitory Concentration, B. subtilis (ATCC 6051) (B. subtilis ATCC 6051): 3.125 µM
CCCCCCCCCCCCCCCC(=O)N[C@@H](CCCCN)C(=O)N[C@H](CCCCN)C(N)=O [PA-KK, Palmitoyl-Lys-D-Lys-NH2]	–	–	–	–	–	–	–	6.25	–	100	–	–	100	–	–	–	12.5 (≈ 6.4 µg/mL)	–	Minimal Inhibitory Concentration, M. laleus (M. laleus): 3.12 µM; MIC ([16]; read-out: Minimal Inhibitory Concentration, Aspergillus Fomigatus (ATCC 26430)): 6.25 µM (≈ 3.2 µg/mL); MIC ([20]; read-out: Minimal Inhibitory Concentration, Cyrptococcus neoformans (ATCC MYA-422)): 2.5 µM (≈ 1.28 µg/mL); Minimal Inhibitory Concentration, E. coli-D21 (E. coli D21): 6.25 µM
CCCCCCCCCCCCCC(=O)N[C@@H](CCCCN)C(=O)NCC(=O)NCC(=O)NCC(=O)N[C@@H](CCCCN)C(=O)NCC(=O)NCC(=O)NCC(=O)N[C@@H](CCCCN)C(=O)NCC(=O)NCC(=O)N[C@@H](CCCCN)C(N)=O [lipopeptide 3, (CH3—(CH2)12—CO—)-Lys-Gly-Gly-Gly-Lys-Gly-Gly-Gly-Lys-Gly-Gly-Lys-NH2] (Myristoyl-KGGGKGGGKGGK-NH2)	–	–	–	6.25	6.25	6.25	6.25	–	12.5	–	6.25	6.25	–	12.5	6.25	3.125	–	3.125	–
